Test results as given in PubChem BioAssay AID248 (DTP/NCI, 2004).
Several values for one entry are separate records, joined by “and”; a condition that tells them apart may be missing. Identical values can stand only once. Inconclusive results and toxic doses are left out. Rule as the data show it: active = T/C of 150% or more; inactive = T/C below 125%.

Test system: L1210 leukemia ip in BDF1 mice, survival T/C
Test: NCI In Vivo Anticancer Drug Screen. Data for tumor model L1210 Leukemia (intraperitoneal) in B6D2F1 (BDF1) mice
Conditions: higher = longer survival
Procedure, shortened: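 Transplantable tumor model; survival measured in treated vs vehicle control mice. Value = treated/control.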

[1] = endpoint: mean survival time, dose: 100.0 mg/kg/injection, schedule: Q01DX009 (ip), vehicle: saline
[2] = endpoint: mean survival time, dose: 100.0 mg/kg/injection, schedule: Q04DX003 (ip), vehicle: saline with Tween-80
[3] = endpoint: mean survival time, dose: 100.0 mg/kg/injection, schedule: Q01DX001 (ip), vehicle: saline
[4] = endpoint: mean survival time, dose: 200.0 mg/kg/injection, schedule: Q01DX001 (ip), vehicle: saline
[5] = endpoint: mean survival time, dose: 400.0 mg/kg/injection, schedule: Q01DX001 (ip), vehicle: saline

Measured: T/C

CS(=O)(=O)OCCCCOS(C)(=O)=O
inactive: endpoint: mean survival time, dose: 1.5 mg/kg/injection, schedule: Q04DX002 (ip), vehicle: saline with Tween-80 95 % of control and 106 % of control | endpoint: mean survival time, dose: 1.7 mg/kg/injection, schedule: Q01DX009 (ip), vehicle: saline with Tween-80 96 % of control and 108 % of control | endpoint: mean survival time, dose: 2.9 mg/kg/injection, schedule: Q04DX002 (ip), vehicle: saline with Tween-80 100 % of control and 107 % of control | endpoint: mean survival time, dose: 3.3 mg/kg/injection, schedule: Q01DX009 (ip), vehicle: saline with Tween-80 96 % of control and 105 % of control | endpoint: mean survival time, dose: 3.75 mg/kg/injection, schedule: Q01DX001 (ip), vehicle: carboxymethylcellulose (CMC) 103 % of control | endpoint: mean survival time, dose: 5.8 mg/kg/injection, schedule: Q04DX002 (ip), vehicle: saline with Tween-80 98 % of control and 102 % of control | endpoint: mean survival time, dose: 6.25 mg/kg/injection, schedule: Q01DX010 (ip), vehicle: saline 108 % of control and 118 % of control | endpoint: mean survival time, dose: 6.5 mg/kg/injection, schedule: Q01DX009 (ip), vehicle: saline with Tween-80 99 % of control and 105 % of control | endpoint: mean survival time, dose: 7.5 mg/kg/injection, schedule: Q01DX001 (ip), vehicle: carboxymethylcellulose (CMC) 112 % of control | endpoint: mean survival time, dose: 9.5 mg/kg/injection, schedule: Q02DX010 (ip), vehicle: carboxymethylcellulose (CMC) 111 % of control | endpoint: mean survival time, dose: 10.0 mg/kg/injection, schedule: Q01DX Z (ip), vehicle: carboxymethylcellulose (CMC) 104 % of control | endpoint: mean survival time, dose: 10.0 mg/kg/injection, schedule: Q02DX010 (ip), vehicle: carboxymethylcellulose (CMC) 97 % of control | endpoint: mean survival time, dose: 10.0 mg/kg/injection, schedule: Q02DX010 (ip), vehicle: other 112 % of control | endpoint: mean survival time, dose: 11.5 mg/kg/injection, schedule: Q04DX002 (ip), vehicle: saline with Tween-80 98 % of control and 109 % of control | endpoint: mean survival time, dose: 12.5 mg/kg/injection, schedule: Q01DX009 (ip), vehicle: saline 97 % of control and 104 % of control and 88 % of control | endpoint: mean survival time, dose: 12.5 mg/kg/injection, schedule: Q01DX010 (ip), vehicle: saline 116 % of control and 118 % of control | endpoint: mean survival time, dose: 12.5 mg/kg/injection, schedule: Q01DX Z (ip), vehicle: carboxymethylcellulose (CMC) 93 % of control and 102 % of control | endpoint: mean survival time, dose: 13.0 mg/kg/injection, schedule: Q01DX009 (ip), vehicle: saline with Tween-80 99 % of control and 101 % of control | endpoint: mean survival time, dose: 14.0 mg/kg/injection, schedule: Q02DX010 (ip), vehicle: carboxymethylcellulose (CMC) 96 % of control | endpoint: mean survival time, dose: 15.0 mg/kg/injection, schedule: Q01DX001 (ip), vehicle: carboxymethylcellulose (CMC) 101 % of control | endpoint: mean survival time, dose: 15.0 mg/kg/injection, schedule: Q02DX010 (ip), vehicle: carboxymethylcellulose (CMC) 98 % of control | endpoint: mean survival time, dose: 15.0 mg/kg/injection, schedule: Q02DX010 (ip), vehicle: other 104 % of control | endpoint: mean survival time, dose: 20.0 mg/kg/injection, schedule: Q01DX Z (ip), vehicle: carboxymethylcellulose (CMC) 103 % of control | endpoint: mean survival time, dose: 22.0 mg/kg/injection, schedule: Q02DX010 (ip), vehicle: carboxymethylcellulose (CMC) 103 % of control and 113 % of control | endpoint: mean survival time, dose: 22.0 mg/kg/injection, schedule: Q02DX010 (ip), vehicle: other 106 % of control | endpoint: mean survival time, dose: 23.0 mg/kg/injection, schedule: Q04DX002 (ip), vehicle: saline with Tween-80 98 % of control and 100 % of control | endpoint: mean survival time, dose: 25.0 mg/kg/injection, schedule: Q01DX009 (ip), vehicle: saline with Tween-80 101 % of control and 115 % of control | endpoint: mean survival time, dose: 25.0 mg/kg/injection, schedule: Q01DX009 (ip), vehicle: saline 96 % of control (2×) and 111 % of control | endpoint: mean survival time, dose: 25.0 mg/kg/injection, schedule: Q01DX Z (ip), vehicle: carboxymethylcellulose (CMC) 102 % of control and 105 % of control | endpoint: mean survival time, dose: 27.0 mg/kg/injection, schedule: Q01DX001 (ip), vehicle: carboxymethylcellulose (CMC) 96 % of control | endpoint: mean survival time, dose: 30.0 mg/kg/injection, schedule: Q01DX001 (ip), vehicle: carboxymethylcellulose (CMC) 106 % of control | endpoint: mean survival time, dose: 33.0 mg/kg/injection, schedule: Q02DX010 (ip), vehicle: other 112 % of control | endpoint: mean survival time, dose: 40.0 mg/kg/injection, schedule: Q01DX Z (ip), vehicle: carboxymethylcellulose (CMC) 110 % of control | endpoint: mean survival time, dose: 40.0 mg/kg/injection, schedule: Q01DX Z (oral), vehicle: saline 94 % of control | endpoint: mean survival time, dose: 41.0 mg/kg/injection, schedule: Q01DX001 (ip), vehicle: carboxymethylcellulose (CMC) 103 % of control | endpoint: mean survival time, dose: 46.0 mg/kg/injection, schedule: Q04DX002 (ip), vehicle: saline with Tween-80 104 % of control and 107 % of control | endpoint: mean survival time, dose: 49.0 mg/kg/injection, schedule: Q01DX009 (ip), vehicle: saline with Tween-80 103 % of control and 121 % of control | endpoint: mean survival time, dose: 50.0 mg/kg/injection, schedule: Q01DX009 (ip), vehicle: saline 98 % of control and 109 % of control and 120 % of control | endpoint: mean survival time, dose: 50.0 mg/kg/injection, schedule: Q01DX010 (ip), vehicle: saline 111 % of control and 88 % of control | endpoint: mean survival time, dose: 50.0 mg/kg/injection, schedule: Q01DX Z (ip), vehicle: carboxymethylcellulose (CMC) 103 % of control | endpoint: mean survival time, dose: 50.0 mg/kg/injection, schedule: Q02DX010 (ip), vehicle: carboxymethylcellulose (CMC) 101 % of control and 107 % of control | endpoint: mean survival time, dose: 50.0 mg/kg/injection, schedule: Q02DX010 (ip), vehicle: other 115 % of control | endpoint: mean survival time, dose: 60.0 mg/kg/injection, schedule: Q01DX001 (ip), vehicle: carboxymethylcellulose (CMC) 110 % of control | endpoint: mean survival time, dose: 61.0 mg/kg/injection, schedule: Q01DX001 (ip), vehicle: carboxymethylcellulose (CMC) 98 % of control | endpoint: mean survival time, dose: 75.0 mg/kg/injection, schedule: Q02DX010 (ip), vehicle: carboxymethylcellulose (CMC) 89 % of control | endpoint: mean survival time, dose: 80.0 mg/kg/injection, schedule: Q01DX Z (oral), vehicle: saline 105 % of control | [1] 88 % of control | endpoint: mean survival time, dose: 100.0 mg/kg/injection, schedule: Q01DX Z (ip), vehicle: carboxymethylcellulose (CMC) 93 % of control | [2] 101 % of control | endpoint: mean survival time, dose: 120.0 mg/kg/injection, schedule: Q01DX001 (ip), vehicle: carboxymethylcellulose (CMC) 100 % of control | endpoint: mean survival time, dose: 160.0 mg/kg/injection, schedule: Q01DX Z (oral), vehicle: saline 108 % of control | endpoint: mean survival time, dose: 200.0 mg/kg/injection, schedule: Q04DX003 (ip), vehicle: saline with Tween-80 104 % of control | endpoint: mean survival time, dose: 400.0 mg/kg/injection, schedule: Q04DX003 (ip), vehicle: saline with Tween-80 104 % of control | endpoint: median survival time, dose: 10.0 mg/kg/injection, schedule: Q01DX009 (ip), vehicle: saline 105 % of control | endpoint: median survival time, dose: 12.5 mg/kg/injection, schedule: Q01DX009 (ip), vehicle: saline 95 % of control and 112 % of control | endpoint: median survival time, dose: 20.0 mg/kg/injection, schedule: Q01DX009 (ip), vehicle: saline 100 % of control | endpoint: median survival time, dose: 25.0 mg/kg/injection, schedule: Q01DX009 (ip), vehicle: saline 110 % of control and 112 % of control | endpoint: median survival time, dose: 40.0 mg/kg/injection, schedule: Q01DX009 (ip), vehicle: saline 100 % of control | endpoint: median survival time, dose: 50.0 mg/kg/injection, schedule: Q01DX009 (ip), vehicle: saline 100 % of control and 112 % of control | endpoint: median survival time, dose: 80.0 mg/kg/injection, schedule: Q01DX009 (ip), vehicle: saline 110 % of control | endpoint: median survival time, dose: 100.0 mg/kg/injection, schedule: Q01DX009 (ip), vehicle: saline 100 % of control | endpoint: median survival time, dose: 160.0 mg/kg/injection, schedule: Q01DX009 (ip), vehicle: saline 100 % of control

CCCCNC(C)(C)C(SSSC(c1cccs1)C(C)(C)NCCCC)c1cccs1 (stereo not given)
inactive: endpoint: mean survival time, dose: 100.0 mg/kg/injection, schedule: Q04DX003 (ip), vehicle: saline sonified 97 % of control | endpoint: mean survival time, dose: 200.0 mg/kg/injection, schedule: Q04DX003 (ip), vehicle: saline sonified 107 % of control | endpoint: mean survival time, dose: 400.0 mg/kg/injection, schedule: Q04DX003 (ip), vehicle: saline sonified 100 % of control

CC(C)(C)COC(=O)C(C)(C)C
inactive: [3] 117 % of control | [4] 112 % of control | [5] 102 % of control

CN1C2CCC1CC(OC(=O)c1ccccc1)C2 (stereo not given)
inactive: endpoint: mean survival time, dose: 25.0 mg/kg/injection, schedule: Q04DX002 (ip), vehicle: saline with Tween-80 94 % of control | endpoint: mean survival time, dose: 50.0 mg/kg/injection, schedule: Q04DX002 (ip), vehicle: saline with Tween-80 105 % of control | endpoint: mean survival time, dose: 100.0 mg/kg/injection, schedule: Q04DX002 (ip), vehicle: saline with Tween-80 94 % of control

COC1OC2COC(c3ccccc3)OC2C(OC(=O)c2ccccc2)C1OC(=O)c1ccccc1 (stereo not given)
inactive: endpoint: mean survival time, dose: 12.5 mg/kg/injection, schedule: Q04DX002 (ip), vehicle: Klucel (hydroxypropylcellulose) (HPC) 104 % of control | endpoint: mean survival time, dose: 25.0 mg/kg/injection, schedule: Q04DX002 (ip), vehicle: Klucel (hydroxypropylcellulose) (HPC) 100 % of control | endpoint: mean survival time, dose: 50.0 mg/kg/injection, schedule: Q04DX002 (ip), vehicle: Klucel (hydroxypropylcellulose) (HPC) 98 % of control

COC1OC2COC(c3ccccc3)OC2C(O)C1N (stereo not given)
inactive: endpoint: mean survival time, dose: 50.0 mg/kg/injection, schedule: Q04DX003 (ip), vehicle: saline with Tween-80 93 % of control | [2] 98 % of control

CCCCCCCCC/C(C)=C1/SC(=S)NC1=O
inactive: [3] 102 % of control | [1] 88 % of control | [4] 93 % of control | [5] 95 % of control
